Assay [1] deals with Mino. Nature of the assay: Cytotoxicity of linker-drug complex, Mino. It counts as cell-based. Conditions: Homo sapiens. On the procedure:
(§1) The cytotoxicity of the linker-drug complex itself prepared to contain beta-galactosidase was evaluated. Specifically, each of the linker-drug complexes dissolved in DMSO was serially diluted 3× from 200 nM to 30 pM in a medium for cell culture to prepare a sample, and various cancer cell lines were treated with the sample to finally expose the cells to 100 nM to 15 pM the linker-drug complexes. The cells were cultured for 6 days, cell viability was observed using a CCK-8 cell-counting kit and cytotoxicity was evaluated.

The subject of assay [2] is Jeko-1. Nature of the assay: Cytotoxicity of linker-drug complex, Jeko-1. It counts as cell-based. Conditions: Homo sapiens. On the procedure:
as §1

For assay [3], the system named is Daudi. Nature of the assay: Cytotoxicity of linker-drug complex, Daudi. It counts as cell-based. Conditions: Homo sapiens. On the procedure: as §1
Assay [4] has as its system Raji. Nature of the assay: Cytotoxicity of linker-drug complex, Raji. Conditions: Homo sapiens. It counts as cell-based. Here is the method: as §1
For assay [5], the system named is 697. Nature of the assay: Cytotoxicity of linker-drug complex, 697. It counts as cell-based. Here is the method: as §1
Assay [6] concerns jurkat. Nature of the assay: Cytotoxicity of linker-drug complex, jurkat. It counts as cell-based. The note with it: Homo sapiens. On the procedure: as §1
For assay [7], the system named is H929. Nature of the assay: Cytotoxicity of linker-drug complex, H929. It counts as cell-based. The note with it: Homo sapiens. On the procedure: as §1
Assay [8] relates to OPM-2. Nature of the assay: Cytotoxicity of linker-drug complex, OPM-2. It counts as cell-based. Conditions: Homo sapiens. On the procedure:
as §1

Assay [9] relates to U266. Nature of the assay: Cytotoxicity of linker-drug complex, U266. The note with it: Homo sapiens. It counts as cell-based. Here is the method: as §1
In assay [10] the test system is Calu-6. Nature of the assay: Cytotoxicity of linker-drug complex, Calu-6. It counts as cell-based. The note with it: Homo sapiens. Here is the method:
as §1

Assay [11] concerns HCC1954. Nature of the assay: Cytotoxicity of linker-drug complex, HCC1954. It counts as cell-based. Conditions: Homo sapiens. Here is the method:
as §1

Assay [12] deals with JIMT1. Nature of the assay: Cytotoxicity of linker-drug complex, JIMT1. Conditions: Homo sapiens. It counts as cell-based. Here is the method: as §1
Assay [13] deals with NCI-N87. Nature of the assay: Cytotoxicity of linker-drug complex, NCI-N87. It counts as cell-based. Conditions: Homo sapiens. On the procedure:
as §1

Assay [14] deals with T1, NaPi2b (UniProt O95436 1-690, limits assumed).
T1 sequence (looked up): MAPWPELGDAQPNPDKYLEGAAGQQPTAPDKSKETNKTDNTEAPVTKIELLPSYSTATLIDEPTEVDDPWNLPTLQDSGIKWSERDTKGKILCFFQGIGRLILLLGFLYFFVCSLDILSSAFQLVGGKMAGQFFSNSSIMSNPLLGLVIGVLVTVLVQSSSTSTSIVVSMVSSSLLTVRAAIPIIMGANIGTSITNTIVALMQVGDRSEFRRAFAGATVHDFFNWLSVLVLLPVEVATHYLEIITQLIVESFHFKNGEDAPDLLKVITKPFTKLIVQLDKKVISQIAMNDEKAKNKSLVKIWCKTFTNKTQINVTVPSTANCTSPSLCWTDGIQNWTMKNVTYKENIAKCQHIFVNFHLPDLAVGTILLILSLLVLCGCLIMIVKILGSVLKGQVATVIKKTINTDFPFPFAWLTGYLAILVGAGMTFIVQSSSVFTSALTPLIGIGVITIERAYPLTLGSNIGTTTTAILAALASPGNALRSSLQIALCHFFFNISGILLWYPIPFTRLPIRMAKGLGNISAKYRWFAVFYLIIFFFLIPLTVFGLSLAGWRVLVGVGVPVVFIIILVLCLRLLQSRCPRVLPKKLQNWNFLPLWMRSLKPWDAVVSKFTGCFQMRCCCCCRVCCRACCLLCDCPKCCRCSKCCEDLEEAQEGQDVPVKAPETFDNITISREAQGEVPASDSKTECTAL
Nature of the assay: cell-based or functional assay.

Assay [15] addresses T1, NaPi2b. Nature of the assay: cell-based or functional assay. The source holds these as a separate data set.
The target of assay [16] is T2, CLL-1 (UniProt Q5QGZ9 1-265, limits assumed).
T2 sequence (looked up): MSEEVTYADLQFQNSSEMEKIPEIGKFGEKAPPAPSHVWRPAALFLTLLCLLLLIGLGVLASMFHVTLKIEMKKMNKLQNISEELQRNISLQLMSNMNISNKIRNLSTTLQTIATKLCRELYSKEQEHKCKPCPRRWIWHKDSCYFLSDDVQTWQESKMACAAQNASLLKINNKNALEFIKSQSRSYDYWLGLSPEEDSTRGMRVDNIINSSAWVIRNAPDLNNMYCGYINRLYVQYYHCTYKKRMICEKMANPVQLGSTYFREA
Nature of the assay: cell-based or functional assay.

The source of these data is patent US20220125944A1, “ANTIBODY-DRUG CONJUGATE AND USE THEREOF” (priority 2019, published 2022).

Like-named read-outs stand apart in the source and are kept apart here.

In general, IC50 refers to the concentration that inhibits the measured activity by half. Regarding `O=C(CCCCCN1C(=O)C=CC1=O)NCCOc1cc(/C=C/C(=O)N2C[C@@H](CCl)c3c2cc(O[C@@H]2O[C@H](CO)[C@H](O)[C@H](O)[C@H]2O)c2ccccc32)ccc1/C=C/C(=O)N1C[C@@H](CCl)c2c1cc(O[C@@H]1O[C@H](CO)[C@H](O)[C@H](O)[C@H]1O)c1ccccc21` [PD001], the IC50 came to 0.00326 µM in assay [1] (144 h, read-out: IC50 #1); 0.00234 µM in assay [1] (144 h, read-out: IC50 #2); 0.00276 µM in assay [1] (read-out: IC50 Mean); 0.0131 µM in assay [2] (JeKo-1, 144 h, read-out: IC50 #1); 0.0317 µM in assay [2] (JeKo-1, read-out: IC50 #2); 0.0204 µM in [2] (JeKo-1, read-out: IC50 Mean). Moreover, the IC50 was 0.0125 µM in assay [3] (144 h, read-out: IC50 #1); 0.00946 µM in assay [3] (read-out: IC50 #2); 0.0109 µM in assay [3] (read-out: IC50 Mean); 0.0308 µM in assay [4] (144 h, Burkitt's lymphoma, run #1, 6 days, CCK-8, read-out: IC50 #1); 0.0184 µM in assay [4] (mean of #1 and #2, read-out: IC50 Mean); 0.011 µM in assay [4] (run #2, read-out: IC50 #2). The IC50 is 0.00478 µM in [5] (144 h, read-out: IC50 #1); 0.00372 µM in assay [5] (read-out: IC50 #2); 0.00422 µM in [5] (read-out: IC50 Mean); 0.0145 µM in assay [6] (144 h, read-out: IC50 #1); 0.00112 µM in [6] (read-out: IC50 #2); 0.0127 µM in assay [6] (read-out: IC50 Mean). Further, the IC50 in assay [7] (NCI-H929, 144 h, read-out: IC50 #1) turned out to be 0.0203 µM; in assay [7] (NCI-H929, read-out: IC50 #2) it was 0.0264 µM; in [7] (NCI-H929, read-out: IC50 Mean) it was 0.0232 µM; in [8] (OPM-2, 144 h, read-out: IC50 #1), 0.0262 µM; in assay [8] (OPM-2, read-out: IC50 #2), 0.0256 µM; in assay [8] (OPM-2, read-out: IC50 Mean) it was 0.0259 µM. Besides, the IC50 amounted to 0.00797 µM in [9] (U-266, 144 h, read-out: IC50 #1); 0.00561 µM in [9] (U-266, read-out: IC50 #2); 0.00669 µM in [9] (U-266, read-out: IC50 Mean); 0.0589 µM in [10] (Calu-6, 144 h, read-out: IC50 #1); 0.0522 µM in assay [10] (Calu-6, read-out: IC50 #2); 0.0554 µM in [10] (Calu-6, read-out: IC50 Mean). Moreover, the IC50 in assay [11] (HCC1954, 144 h, read-out: IC50 #1) was found to be 0.025 µM; in [11] (HCC1954, read-out: IC50 #2), 0.0164 µM; in assay [11] (HCC1954, read-out: IC50 Mean) it was 0.0203 µM; in [12] (JIMT-1, 144 h, read-out: IC50 #1), 0.047 µM; in assay [12] (JIMT-1, read-out: IC50 #2) it was 0.0249 µM; in assay [12] (JIMT-1, read-out: IC50 Mean), 0.0342 µM. Also, the IC50 in assay [13] (NCI-N87, 144 h, read-out: IC50 #1) was 0.00806 µM; in assay [13] (NCI-N87, read-out: IC50 #2), 0.00909 µM; in [13] (NCI-N87, read-out: IC50 Mean) it was 0.00856 µM.

B1: D20002 (10H1-PD001) (antibody, human IgG1, kappa, V domains shown)
VH: EVQLVESGGGLVQPGGSLRLSCAASGFSFSDFAMSWVRQAPGKGLEWVATIGRVAFHTYYPDSMKGRFTISRDNSKNTLYLQMNSLRAEDTAVYYCARHRGFDVGHFDFWGQGTLVTVSS
VL: DIQMTQSPSSLSASVGDRVTITCRSSETLVHSSGNTYLEWYQQKPGKAPKLLIYRVSNRFSGVPSRFSGSGSGTDFTLTISSLQPEDFATYYCFQGSFNPLTFGQGTKVEIKR
modifications: linker-drug PD001 conjugated to a cysteine put in place of lysine 149 (Kabat numbering) of the light chain
B1: in assay [14], the “IC50, cytotoxicity on OVCAR-3” value is 0.00153 µM and the “non-binder/binder ratio on OVCAR-3” value is no less than 100. In addition, the “IC50 (nM), cytotoxicity on OVCAR3” value in [15] was found to be 1.5 nM.

B2: D20502 (6E7-PD009) (antibody, human IgG1, kappa, V domains shown)
VH: B1 VH
VL: DIQMTQSPSSLSASVGDRVTITCRASQSVSTSSYNYMHWYQQKPGKPPKLLIKYASNLESGVPSRFSGSGSGTDFTLTISSLQPEDFATYYCQHSWEIPLTFGQGTKVEIKR
modifications: linker-drug PD009 conjugated to a cysteine put in place of lysine 149 (Kabat numbering) of the light chain
B2: the “IC50 (nM), cytotoxicity on EDL-1 (AML)” value in assay [16] was determined as 0.3 nM.
